Consider three compounds from US11155550B2, “Histone deacetylase inhibitors and methods of use thereof” (Reaction Biology Corp., priority 2018, dated 2021).

Data set [1] is described as follows: Mouse plasma PK after IV administration. Particulars: for AUC(0-inf): read-out: AUCINF_obs (converted); for MRT inf: read-out: MRTINF_obs. Format: in vivo. How it is done:
(§1) In vivo PK (pharmacokinetics) studies were run at Scripps Florida DMPK Core facility. Mouse plasma PK data was obtained using Compound Example 4 (N-(2-amino-5-(thiophen-2-yl)phenyl)-6-(8-methyl-2-oxo-1-oxa-3,8-diazaspiro[4.5]decan-3-yl)nicotinamide)
(§2) Dose: 1 mg/kg intravenous (IV) and 7 mg/kg oral dosage (PO)
(§3) Formulation: 0.1 mg/mL IV and 1 mg/mL PO solution in 10/10/80 DMSO/Tween80/Water
(§4) Mice Info: Male C57 Bl/6J

Data set [2] is described as follows: Mouse plasma PK after oral administration. Format: in vivo. How it is done:
as §1, §2, §3, §4

Data set [3] is described as follows: Brain exposure experiments in mice. Format: in vivo, mouse. Conditions: 1 hour after exposure. On the procedure:
Brain exposure experiments were performed wherein mice were exposed to Compound Example 4 at an IV dosage of 1 mg/kg (Table 5).

For data set [4], the target named is T1, Human HDAC11 (Homo sapiens, UniProt Q96DB2).
T1 construct: Human HDAC11 (full length); GST tag (N); made in house; host or cells: baculovirus expression system
T1 sequence (Q96DB2 1-347): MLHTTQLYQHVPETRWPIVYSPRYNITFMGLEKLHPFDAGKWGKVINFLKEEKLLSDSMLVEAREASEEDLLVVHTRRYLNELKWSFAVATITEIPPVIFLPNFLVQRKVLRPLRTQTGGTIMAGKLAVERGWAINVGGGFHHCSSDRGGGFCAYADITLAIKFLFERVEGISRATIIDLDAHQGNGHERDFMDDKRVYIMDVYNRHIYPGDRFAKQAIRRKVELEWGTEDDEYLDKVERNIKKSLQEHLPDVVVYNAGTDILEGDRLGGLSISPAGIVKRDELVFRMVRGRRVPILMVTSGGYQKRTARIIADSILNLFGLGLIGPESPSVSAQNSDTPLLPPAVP
The data set is described as follows: Biochemical HDAC enzymatic assay, HDAC11. Conditions: Table 2; incubation time 10 min. How it is done:
Incubation time for HDAC1/2 is 120 min, and 10 min for other HDACs.
Human HDAC11 (full length) (GenBank Accession No. NM_024827) with a N-terminal GST tag, MW=66 kDa, was expressed in a baculovirus expression system.
• I. Compound handling: Testing compounds were dissolved in 100% DMSO to a specific concentration. The serial dilution was conducted by epMotion 5070 in DMSO. • II. HDAC reaction buffer: 50 mM Tris-HCl, pH8.0, 137 mM NaCl, 2.7 mM KCl, and 1 mM MgCl2, Added fresh: 1 mg/ml BSA, 1% DMSO. • III. […] Delivered 2× Substrate Mixture (Fluorogenic HDAC Substrate and co-factor ([…] of Nicotinamide adenine dinucleotide (NAD^+) in all Sirt assay) in all reaction wells to initiate the reaction. Spin and shake. • d. Incubated for 1-2 hr. at 30° C. with seal. • e. Added Developer with Trichostatin A (or TMP269 or NAD^+) to stop the reaction and to generate fluorescent color. • f. Fluorescence was read (excitatory, 360; emission, 460) using the EnVision Multilabel Plate Reader (Perkin Elmer) • g. Endpoint reading was taken for analysis after the development reaches plateau. • V. Data Analysis: The percentages of enzyme activity (relative to DMSO controls) and IC50 values were calculated using the GraphPad Prism 4 program based on a sigmoidal dose-response equation. […]

Setting [5] is: 1 mg/kg IV, individual mice, 1 mg/kg.
Where [6] appears, read: male, C57 Bl/6J, mouse, plasma, iv, 1 mg/kg, 1 mg/kg IV, Average.
Where [7] appears, read: male, C57 Bl/6J, mouse, plasma, iv, 1 mg/kg, 1 mg/kg IV, individual mice.
Where [8] appears, read: mouse plasma, 7 mg/kg PO, Average.
[9] abbreviates: mouse plasma, 7 mg/kg PO, individual mice, 7 mg/kg.
Where [10] appears, read: IV 1 mg/kg, individual mice (7, 8, 9), 1 mg/kg.

Several values for one entry are separate records, joined by “and”; a condition that tells them apart may be missing. Identical values can stand only once. Like-named read-outs stand apart in the source and are kept apart here.

Regarding `CN1CCC2(CC1)CN(c1ccc(C(=O)Nc3cc(-c4cccs4)ccc3N)cn1)C(=O)O2` [Example 4, N-(2-amino-5-(thiophen-2-yl)phenyl)-6-(8-methyl-2-oxo-1-oxa-3,8-diazaspiro[4.5]decan-3-yl)nicotinamide], the “AUC (% Extrap)” value is 1.08% in data set [1] (1 mg/kg IV, Average); 0.30% and 1.04% and 1.89% in data set [1] (setting [5]); 6.54% in data set [2] (setting [8]); 5.20% and 9.47% and 4.97% in data set [2] (setting [9]). For the same compound, the Cl_obs in data set [1] (1 mg/kg IV, Average) is 4.93 mL/min/kg; in data set [1] (setting [5]), 4.70 mL/min/kg and 5.63 mL/min/kg and 4.46 mL/min/kg; in data set [2] (setting [8]), 16.34 mL/min/kg; in data set [2] (setting [9]), 10.13 mL/min/kg and 20.88 mL/min/kg and 18.01 mL/min/kg. The Vss_obs in data set [1] (1 mg/kg IV, Average) was 0.54 L/kg; in data set [1] (setting [5]) it was 0.50 L/kg and 0.59 L/kg and 0.53 L/kg. Also, the T1/2 in data set [1] (1 mg/kg IV, individual mice (Mouse-1 to Mouse-3), 1 mg/kg) is 1.33 h and 1.28 h; in data set [2] (mouse plasma, 7 mg/kg PO, individual mice (Mouse-1 to Mouse-3), 7 mg/kg), 2.25 h and 1.78 h. Further, in data set [1] (setting [5]), the AUC last was 6.33 µM·h and 7.92 µM·h. In addition, the AUCINF_obs in data set [1] (setting [5]) is 177722 ng·min/mL and 224191 ng·min/mL; in data set [2] (setting [9]), 690882 ng·min/mL and 335315 ng·min/mL and 388640 ng·min/mL. The AUClast in data set [1] (setting [5]) was 175879 ng·min/mL and 219951 ng·min/mL; in data set [2] (setting [9]) it was 654948 min*ng/mL and 303573 min*ng/mL and 369340 min*ng/mL and 23.58 μM.hr and 10.93 μM.hr and 13.30 μM.hr. In addition, the Cmax in data set [1] (setting [5]) is 2490 ng/mL and 2040 ng/mL; in data set [1] (1 mg/kg IV, individual mice, 1 mg/kg, read-out: Cmax), 5.38 µM and 4.41 µM; in data set [1] (male, C57 Bl/6J, mouse, plasma, iv, 1 mg/kg, 1 mg/kg IV, Average, read-out: Cmax), 2030 ng/mL and 4.38 µM; in data set [1] (male, C57 Bl/6J, mouse, plasma, iv, 1 mg/kg, 1 mg/kg IV, individual mice, read-out: Cmax) it was 1560 ng/mL and 3.37 µM; in data set [2] (male, C57 Bl/6J, mouse, plasma, po, 7 mg/kg, mouse plasma, 7 mg/kg PO, Average, read-out: Cmax) it was 2490 ng/mL and 5.39 µM; in data set [2] (male, C57 Bl/6J, mouse, plasma, po, 7 mg/kg, mouse plasma, 7 mg/kg PO, individual mice, read-out: Cmax), 3200 ng/mL and 6.91 µM. Further, the Cmax was 1930 ng/mL and 2350 ng/mL in data set [2] (setting [9]); 4.17 µM and 5.08 µM in data set [2] (mouse plasma, 7 mg/kg PO, individual mice, 7 mg/kg, read-out: Cmax). For the same compound, the MRTINF_obs in data set [1] (setting [5]) was 1.74 h and 1.97 h. In addition, the “clearance (in words)” value in data set [1] (IV administration) is on record as “low clearance”. Further, the “volume (in words)” value in data set [1] (IV administration) was “low volume”. Moreover, the Tmax in data set [1] (male, C57 Bl/6J, 1 mg/kg IV, individual mice) came out at 4.8 min; in data set [2] (male, C57 Bl/6J, mouse plasma, 7 mg/kg PO, individual mice), 1 h. Besides, the AUC was roughly 7.3 µM·h in data set [1] (male, C57 Bl/6J, 1 mg/kg, IV administration) and roughly 16 µM·h in data set [2] (male, C57 Bl/6J, 7 mg/kg, mouse plasma, oral dosing, read-out: AUC (area under curve)). In addition, the area under the curve AUC(0-t) is 3380 ng·h/mL and 7.3 µM·h in data set [1] (setting [6]); 3540 ng·h/mL and 7.64 µM·h in data set [1] (setting [7]); 7380 ng·h/mL and 15.9 µM·h in data set [2] (male, C57 Bl/6J, mouse, plasma, po, 7 mg/kg, mouse plasma, 7 mg/kg PO, Average). The AUC(0-inf) in data set [1] (setting [6]) is 3420 ng·h/mL; in data set [1] (setting [7]), 3550 ng·h/mL; in data set [2] (male, C57 Bl/6J, mouse, plasma, po, 7 mg/kg, mouse plasma, 7 mg/kg PO, Average, read-out: AUCINF_obs (converted)), 7860 ng·h/mL. The values for the MRT inf in data set [1] (setting [6]) and in data set [1] (setting [7]) were 1.82 h and 1.76 h, respectively. The half-life in data set [1] (male, C57 Bl/6J, mouse, plasma, iv, 1 mg/kg, 1 mg/kg IV, Average, read-out: T1/2 (converted)) is 1.16 h; in data set [1] (male, C57 Bl/6J, mouse, plasma, iv, 1 mg/kg, 1 mg/kg IV, individual mice (Mouse-1 to Mouse-3), read-out: T1/2 (converted)) it was 0.86 h; in data set [1] (male, C57 Bl/6J, mouse, plasma, iv, 1 mg/kg, IV administration, read-out: half-life (T1/2) (converted)) it was 1.2 h; in data set [2] (male, C57 Bl/6J, mouse, plasma, po, 7 mg/kg, mouse plasma, 7 mg/kg PO, Average, read-out: T1/2 (converted)), 1.9 h; in data set [2] (male, C57 Bl/6J, mouse, plasma, po, 7 mg/kg, mouse plasma, 7 mg/kg PO, individual mice (Mouse-1 to Mouse-3), read-out: T1/2 (converted)) it was 1.65 h; in data set [2] (male, C57 Bl/6J, mouse, plasma, po, 7 mg/kg, mouse plasma, oral dosing, read-out: half-life (converted)), 1.9 h. In addition, the bioavailability in data set [2] (male, C57 Bl/6J, plasma, 7 mg/kg, mouse, oral dosing, read-out: bioavailability (% F)) worked out at 31%; in data set [2] (male, C57 Bl/6J, plasma, mouse, 7 mg/kg PO vs 1 mg/kg IV, Average, read-out: % F), 31%. Besides, the “brain penetration (in words)” value in data set [3] (IV 1 mg/kg) is listed as “very low brain penetration”. Further, in data set [3] (setting [10]), the Brain concentration was 61.9 ng/mL and 0 ng/mL and 73 ng/mL. Also, in data set [3] (setting [10]), the Plasma concentration was 1030 ng/mL and 2.22 μM and 1620 ng/mL and 3.50 μM. Further, the concentration at 1 h in data set [3] (IV 1 mg/kg, individual mice (7, 8, 9), 1 mg/kg, read-out: Brain concentration) was 0.13 µM and 0.00 µM and 0.16 µM; in data set [3] (mouse, brain, iv, 1 mg/kg, Average, read-out: Brain concentration), 67.5 ng/mL and 150 nM; in data set [3] (mouse, plasma, iv, 1 mg/kg, Average, read-out: Plasma concentration), 1440 ng/mL and 3.1 µM; in data set [3] (mouse, plasma, iv, 1 mg/kg, individual mice (7, 8, 9), read-out: Plasma concentration), 1660 ng/mL and 3.59 µM.
`O=C(NO)c1ccc(CN2C(=O)c3ccccc3C23CCN(C2CC2)CC3)cc1` [Compound Example 12, 4-((1′-cyclopropyl-3-oxospiro[isoindoline-1,4′-piperidin]-2-yl)methyl)-N-hydroxybenzamide]: in data set [4], half-maximal inhibition (IC50) was put at 3.6 µM.
Compound `CN(C)C(=O)N1CCC2(CC1)c1ccccc1C(=O)N2Cc1ccc(C(=O)NO)cc1` [Compound Example 11, 2-(4-(hydroxycarbamoyl)benzyl)-N,N-dimethyl-3-oxospiro[isoindoline-1,4′-piperidine]-1′-carboxamide] had an IC50 in data set [4] of 4.1 µM.

As usually defined, the Cmax is the peak of the concentration-time curve. In general, Tmax refers to the time from dosing to the highest level. In general, AUC refers to the area under the concentration-time curve, a measure of exposure. As usually defined, the AUC(0-t) is exposure summed from dosing to a finite time, without extrapolation to infinity. By IC50 is commonly meant the midpoint of a concentration-inhibition curve.
